The experiment has as its system normally fed mice. The experiment can be described thus: Feeding behavior in normally fed mice injected into the stomach wall with vector, then given CNO. It is filed as in vivo. The following applies: 1 mg/kg CNO, FIGS. 9A-9E. The method, then:
FIG. 3 depicts the response of normally fed […] mice injected into the stomach wall with retroAAV/rh10 expressing a DREADD (hD3q) which activates neurons in response to 1 mg/kg CNO. Animals injected with retroAAV/rh10 expressing the marker gene mCherry fed normally in response to CNO.

Molecules are shown by their SMILES.

`C[N+]1([O-])CCN(C2=Nc3cc(Cl)ccc3Nc3ccccc32)CC1` [CNO, clozapine-N-oxide]: the “long term feeding behavior” value is “long term stability of reduced feeding behavior”.

The values above are taken from patent US20210301306A1 (priority 2018, published 2021).
